Experimental data: US8541407B2 (ArQule, Inc., priority 2010, dated 2013)

Biological target: AKT1 (Homo sapiens (Human), UniProt P31749)
Assay: Inactive Akt Alpha Screen Assay
Conditions: non *labeled: Akt Alpha Screen assay; read-out: AKT1 biochemical assay, IC50
Procedure, shortened: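 AKT1 activated in situ by PDK1, MAPKAPK2, lipid vesicles and ATP, then phosphorylating biotinylated crosstide for 30 min at room temperature. Stopped with 10 mM EDTA; phosphopeptide detected by AlphaScreen using phospho-AKT substrate antibody (1:350), Protein A acceptor and streptavidin donor beads, 90 min dark, ex 640/em 570 nm.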

AKT1, sequence (P31749 whole entry): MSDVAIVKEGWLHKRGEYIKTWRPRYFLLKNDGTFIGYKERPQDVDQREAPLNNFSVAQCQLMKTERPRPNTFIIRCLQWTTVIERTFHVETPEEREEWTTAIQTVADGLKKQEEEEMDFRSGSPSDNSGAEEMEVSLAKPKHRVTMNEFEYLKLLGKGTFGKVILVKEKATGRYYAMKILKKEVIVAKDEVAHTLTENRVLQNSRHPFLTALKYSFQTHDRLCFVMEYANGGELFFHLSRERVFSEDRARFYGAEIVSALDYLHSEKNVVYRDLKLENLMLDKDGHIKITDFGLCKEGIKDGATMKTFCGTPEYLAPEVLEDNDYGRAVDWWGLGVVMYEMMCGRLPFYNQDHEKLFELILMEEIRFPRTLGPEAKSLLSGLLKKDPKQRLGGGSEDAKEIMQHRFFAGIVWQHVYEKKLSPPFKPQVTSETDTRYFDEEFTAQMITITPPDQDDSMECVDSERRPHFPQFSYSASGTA

Row | IC50 [nM] | Structure (SMILES)
1 | 9100 | COc1ccc(S(=O)(=O)NCCc2ccc(-c3nnc4n3-c3cccnc3Nc3ccccc3-4)cc2)cc1 [Example 109, N-(4-(9H-benzo[f]pyrido[2,3-b][1,2,4]triazolo[4,3-d][1,4]diazepin-3-yl)phenethyl)-4-methoxybenzenesulfonamide]
2 | 3400 | O=S(=O)(CC1CCCCC1)NC1CCN(Cc2ccc(-c3nnc4n3-c3cccnc3Nc3ccccc3-4)cc2)CC1 [Example 148, N-(1-(4-(9H-benzo[f]pyrido[2,3-b][1,2,4]triazolo[4,3-d][1,4]diazepin-3-yl)benzyl)piperidin-4-yl)-1-cyclohexylmethanesulfonamide]
3 | 150 | O=C(Nc1ccc(-c2nnc3n2-c2cccnc2Nc2ccccc2-3)cc1)c1ccc(F)c(F)c1 [Example 37, N-(4-(9H-benzo[f]pyrido[2,3-b][1,2,4]triazolo[4,3-d][1,4]diazepin-3-yl)phenyl)-3,4-difluorobenzamide]
4 | 2200 | Oc1ccc(-c2nnc3n2-c2cccnc2Nc2ccccc2-3)cc1 [Example 19, 4-(9H-benzo[f]pyrido[2,3-b][1,2,4]triazolo[4,3-d][1,4]diazepin-3-yl)phenol]
5 | 200 | O=C(NCc1ccc(-c2nnc3n2-c2cccnc2Nc2ccccc2-3)cc1)c1cccnc1 [Example 96, N-(4-(9H-benzo[f]pyrido[2,3-b][1,2,4]triazolo[4,3-d][1,4]diazepin-3-yl)benzyl)nicotinamide]
6 | 700 | Cc1ccccc1NC(=O)NC1CCN(Cc2ccc(-c3nnc4n3-c3cccnc3Nc3ccccc3-4)cc2)CC1 [Example 179, 1-(1-(4-(9H-benzo[f]pyrido[2,3-b][1,2,4]triazolo[4,3-d][1,4]diazepin-3-yl)benzyl)piperidin-4-yl)-3-(o-tolyl)urea]
7 | 910 | O=C(NCc1ccccc1Cl)NC1CCN(Cc2ccc(-c3nnc4n3-c3cccnc3Nc3ccccc3-4)cc2)CC1 [Example 173, 1-(1-(4-(9H-benzo[f]pyrido[2,3-b][1,2,4]triazolo[4,3-d][1,4]diazepin-3-yl)benzyl)piperidin-4-yl)-3-(2-chlorobenzyl)urea]
8 | 490 | CS(=O)(=O)OCc1ccc(-c2nnc3n2-c2cccnc2Nc2ccccc2-3)cc1 [Example 64, 4-(9H-benzo[f]pyrido[2,3-b][1,2,4]triazolo[4,3-d][1,4]diazepin-3-yl)benzyl methanesulfonate]
9 | 2100 | CCN(Cc1ccncc1)Cc1ccc(-c2nnc3n2-c2cccnc2Nc2ccccc2-3)cc1 [Example 70, N-(4-(9H-benzo[f]pyrido[2,3-b][1,2,4]triazolo[4,3-d][1,4]diazepin-3-yl)benzyl)-N-(pyridin-4-ylmethyl)ethanamine]
10 | 3500 | CN(C)c1ccc(-c2nnc3n2-c2ccccc2Nc2ccccc2-3)cc1 [Example 21, 4-(9H-dibenzo[b,f][1,2,4]triazolo[4,3-d][1,4]diazepin-3-yl)-N,N-dimethylaniline]
11 | 2300 | O=S(=O)(NC1CCN(Cc2ccc(-c3nnc4n3-c3cccnc3Nc3ccccc3-4)cc2)CC1)c1ccccc1F [Example 147, N-(1-(4-(9H-benzo[f]pyrido[2,3-b][1,2,4]triazolo[4,3-d][1,4]diazepin-3-yl)benzyl)piperidin-4-yl)-2-fluorobenzenesulfonamide]
12 | 2600 | COC(=O)c1ccc(-c2nnc3n2-c2cccnc2Nc2ccccc2-3)cc1 [Example 25, methyl 4-(9H-benzo[f]pyrido[2,3-b][1,2,4]triazolo[4,3-d][1,4]diazepin-3-yl)benzoate]
13 | 1800 | O=C(c1ccc(F)cc1)C1CCN(Cc2ccc(-c3nnc4n3-c3cccnc3Nc3ccccc3-4)cc2)CC1 [Example 164, (1-(4-(9H-benzo[f]pyrido[2,3-b][1,2,4]triazolo[4,3-d][1,4]diazepin-3-yl)benzyl)piperidin-4-yl)(4-fluorophenyl)methanone]
14 | 780 | CN(CCc1ccccc1)Cc1ccc(-c2nnc3n2-c2cccnc2Nc2ccccc2-3)cc1 [Example 79, N-(4-(9H-benzo[f]pyrido[2,3-b][1,2,4]triazolo[4,3-d][1,4]diazepin-3-yl)benzyl)-N-methyl-2-phenylethanamine]
15 | 640 | Cn1ccc(S(=O)(=O)NC2(c3ccc(-c4nnc5n4-c4cccnc4Nc4ccccc4-5)cc3)CCC2)n1 [Example 205, N-(1-(4-(9H-benzo[f]pyrido[2,3-b][1,2,4]triazolo[4,3-d][1,4]diazepin-3-yl)phenyl)cyclobutyl)-1-methyl-1H-pyrazole-3-sulfonamide]
16 | 1200 | NC1(c2ccc(-c3nnc4n3-c3cccnc3Nc3ccc(-c5ccccc5)cc3-4)cc2)CCC1 [Example 224, 1-(4-(12-phenyl-9H-benzo[f]pyrido[2,3-b][1,2,4]triazolo[4,3-d][1,4]diazepin-3-yl)phenyl)cyclobutanamine]
17 | 4700 | COCCN(C)Cc1ccc(-c2nnc3n2-c2cccnc2Nc2ccccc2-3)cc1 [Example 77, N-(4-(9H-benzo[f]pyrido[2,3-b][1,2,4]triazolo[4,3-d][1,4]diazepin-3-yl)benzyl)-2-methoxy-N-methylethanamine]
18 | 5000 | NC1(c2ccc(-c3nnc4n3-c3cnccc3Nc3ccccc3-4)cc2)CCC1 [Example 220, 1-(4-(9H-benzo[f]pyrido[4,3-b][1,2,4]triazolo[4,3-d][1,4]diazepin-3-yl)phenyl)cyclobutanamine]
19 | 640 | O=C(Nc1ccc(-c2nnc3n2-c2cccnc2Nc2ccccc2-3)cc1)c1cccc2ccccc12 [Example 34, N-(4-(9H-benzo[f]pyrido[2,3-b][1,2,4]triazolo[4,3-d][1,4]diazepin-3-yl)phenyl)-1-naphthamide]
20 | 630 | O=C(NCCc1ccc(-c2nnc3n2-c2cccnc2Nc2ccccc2-3)cc1)c1ccccc1 [Example 111, N-(4-(9H-benzo[f]pyrido[2,3-b][1,2,4]triazolo[4,3-d][1,4]diazepin-3-yl)phenethyl)benzamide]
21 | 530 | O=C(Nc1ccc2c(c1)CCO2)NC1CCN(Cc2ccc(-c3nnc4n3-c3cccnc3Nc3ccccc3-4)cc2)CC1 [Example 175, 1-(1-(4-(9H-benzo[f]pyrido[2,3-b][1,2,4]triazolo[4,3-d][1,4]diazepin-3-yl)benzyl)piperidin-4-yl)-3-(2,3-dihydrobenzofuran-5-yl)urea]
22 | 1700 | N#Cc1ccc(C(=O)NC2CCN(Cc3ccc(-c4nnc5n4-c4cccnc4Nc4ccccc4-5)cc3)CC2)cc1 [Example 130, N-(1-(4-(9H-benzo[f]pyrido[2,3-b][1,2,4]triazolo[4,3-d][1,4]diazepin-3-yl)benzyl)piperidin-4-yl)-4-cyanobenzamide]
23 | 400 | O=S(=O)(NCc1ccc(-c2nnc3n2-c2cccnc2Nc2ccccc2-3)cc1)c1cccc(F)c1 [Example 113, N-(4-(9H-benzo[f]pyrido[2,3-b][1,2,4]triazolo[4,3-d][1,4]diazepin-3-yl)benzyl)-3-fluorobenzenesulfonamide]

Row | Structure (SMILES) | IC50 [nM]
24 | N#CC1(c2ccccc2)CCN(Cc2ccc(-c3nnc4n3-c3cccnc3Nc3ccccc3-4)cc2)CC1 [Example 163, 1-(4-(9H-benzo[f]pyrido[2,3-b][1,2,4]triazolo[4,3-d][1,4]diazepin-3-yl)benzyl)-4-phenylpiperidine-4-carbonitrile] | 7300
25 | c1ccc(-c2nnc3n2-c2cccnc2Nc2ccccc2-3)cc1 [Example 1, 3-phenyl-9H-benzo[f]pyrido[2,3-b][1,2,4]triazolo[4,3-d][1,4]diazepine] | 2800
